How the values were obtained:
[1] = in vivo; cited from earlier work
F1-ATPase β-subunit = F1-ATPase β-subunit (Homo sapiens, UniProt P06576); settings: effect of the analog on binding of 125I-β-casomorphin1-7 to F1-ATPase β-subunit; cited from earlier work
rats = settings: in overnight fasted rats; cited from earlier work
AMPK = assay: pAMPK Western blot in HepG2 cells, 15 min incubation; assay type: cell-based, human
Description: Human liver cells (HepG2 cell line, American Type Culture Collection, Manassas, Va.) were grown and maintained in Dulbecco's modified eagle's medium (Gibco, Carlsbad, Calif.) containing 10% fetal bovine serum, penicillin (100 I.U./ml), and streptomycin (100 μg/ml). The cells were then incubated for 15 min with 5 mM glucose and various concentrations of enterostatin (0.003, 0.01, 0.1, 1, and 3 μM) and/or of its antagonist β-casomorphin (BCM) (0.003, 0.01, 0.1, 1, and 3 μM). After incubation, the cells were lysed and the cytosolic proteins subjected to Western blot analysis for AMPK and pAMPK. The results for pAMPK activity are shown in FIG. 5A (enterostatin) and FIG. 5B (BCM). […] This effect was blocked by the presence of an antibody to the enterostatin receptor (anti F1-ATPase beta subunit).

Sequence of F1-ATPase β-subunit (P06576 48-529): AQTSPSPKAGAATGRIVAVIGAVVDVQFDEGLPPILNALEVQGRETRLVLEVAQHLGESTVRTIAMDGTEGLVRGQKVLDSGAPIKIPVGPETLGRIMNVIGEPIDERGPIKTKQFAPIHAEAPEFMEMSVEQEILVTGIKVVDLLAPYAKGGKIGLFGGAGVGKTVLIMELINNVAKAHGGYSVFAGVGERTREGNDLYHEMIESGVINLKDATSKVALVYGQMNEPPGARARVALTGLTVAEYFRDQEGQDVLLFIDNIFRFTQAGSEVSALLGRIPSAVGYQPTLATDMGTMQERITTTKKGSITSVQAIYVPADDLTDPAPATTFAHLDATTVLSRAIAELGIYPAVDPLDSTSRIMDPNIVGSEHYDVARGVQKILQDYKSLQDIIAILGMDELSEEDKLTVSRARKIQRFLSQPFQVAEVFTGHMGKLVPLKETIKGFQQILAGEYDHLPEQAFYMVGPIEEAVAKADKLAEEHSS

Molecule | Binding of 125I-β-casomorphin1-7 (F1-ATPase β-subunit) | Intake of high fat diet (rats) | further results
CC1=NS(=O)(=O)c2cc(Cl)ccc2N1 [Diazoxide, diazoxide] |  |  | Duration of action [1]: about 8 hr; Time to act (increase of blood sugar) [1]: ≤ 1 h
APGPR | Increased | Suppression | 
APGPRCY [enterostatin analog] | Increased | Suppression | 
APGPRY | Increased | No changes | 
APGPY | Increased | Suppression | 
CYAPGPR [enterostatin analog] | Displaced | Stimulation | 
CYDPGPR [enterostatin analog] | Displaced | Stimulation | 
DPGPR | Displaced | No changes | 
Glucagon: drug for severe hypoglycemia that stimulates the liver to release large amounts of glucose |  |  | Time to restore blood sugar [1]: 5 to 15 min
PDP | Increased | Suppression | 
PGP | Increased | No changes | 
PGPCY | Increased | No changes | 
VPDPR | Increased | Suppression | 
VPDPR-NH2 | Displaced | No changes | 
VPDPRCY [enterostatin analog] | Increased | Suppression | 
YGGAPGPR [enterostatin analog] | Increased | Suppression | 
YPDPR | Increased | Suppression | 
YPFPGPI [enterostatin analog] | Displaced | Stimulation | 
YPGPR | Increased | Suppression | 
YVPDPR | Increased | Suppression | 
cyclo-HP |  | ^bOnly inhibits food intake as cyclo-HP. | 
β-casomorphin [reference compound] |  |  | pAMPK levels (AMPK; HepG2, 0.1 or 1.0 μM, 15 min): increased pAMPK levels; Effect on pAMPK in presence of antibody anti F1-ATPase beta subunit (AMPK; HepG2, 15 min, 5 mM glucose): blocked this effect; AMPkinase activity shown by pAMPK (AMPK; HepG2, 15 min, 5 mM glucose, 0.003-3 μM): activated AMPkinase
